Assay results taken from patent US10604785B2 (priority 2016, dated 2020).
Residues, ends and D or L forms follow the SMILES beside them. *: point of attachment. Cbz = O=C(OCc1ccccc1)*

System: Rab33b
Assay type: cell-based

CC(C)C[C@@H](C=O)NC(=O)[C@H](CC(C)C)NC(=O)[C@H](CC(C)C)NC(=O)OCc1ccccc1 [MG132] (Cbz-Leu-Leu-Leu-aldehyde)
effect on level of modified Rab33b: does not affect the level of modified Rab33b
